Measurements as given in the supplement of paper PMC10290057.
Counter-ions that a name gives are not always drawn.

The compounds below were run on HCT116 (assay: efficacy (fitted maximal change in viability relative to DMSO control); higher = less cytotoxic (negative = loss of viability)). Details: 48 h.
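Also: Luminescence-based viability readout, five doses per compound, normalized against on-plate DMSO and empty-well controls, followed by dose-response curve fitting for every drug.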

SMILES	efficacy [%]
Cc1ccccc1C(C(=O)NC1CCCCC1)N(C(=O)Cn1ccnc1C)c1cccc(F)c1 (stereo not given) [AGI-5198]	-18.4
c1ccc(CNCc2ccc(CN3CCCNCCNCCCNCC3)cc2)nc1 [AMD-3465]	-13.1
CN1N(C2=CC=CC=C2)C(=O)C(=C1/C3=CC=CC=C3)/C(=O)C4=CC=C(C)C(=C4N)C5=CC=C6N=C(C)C=CC6=C5 [AMG PERK 44]	-31.8
COCCOC1=CN=C2\C=C/N([C@H](C)C3=NN=C4[N]3C=C(C=C4F)C5=C[N](C)N=C5)C(=O)C2=C1 [AMG-337]	-4.95
C[C@H]1CC[C@H](n2c3cnccc3c3cnc(Nc4ccc5c(n4)CCN(C(=O)CO)C5)nc32)CC1 [AMG-925 (FLX925)]	-21.6
N=C(N)NN.N=C(N)NN.O=S(=O)(O)O [AMINOGUANIDINE HYDROCHLORIDE]	-9.44
N#Cc1ccc(Oc2ccc3c(c2)COB3O)cc1 [AN-2728]	-21.2
COCC1(CO)C(=O)C2CCN1CC2 (stereo not given) [APR-246]	-7.36
Cc1cc(O)cc2c1[C@]1(C)CC[C@H]3C(C)(C)CCC[C@]3(C)[C@H]1C2 [AQX-MN-100]	19.8
CC1=CC=C(C=C1)\C2=N\C3=CC=C(Cl)C=C3OC2 [AR-7]	-31.7
CC(C)[C@H](C(=O)Nc1ccc(C(=O)NO)cc1)c1ccccc1 [AR-42]	-43.8
C=CC(=O)N1CC(N2CCN(C(=O)CNc3cc(C4(C)CC4)c(Cl)cc3O)CC2)C1 [ARS-853]	-63.4
CN[C@@H](C)C(=O)N[C@H]1CN(C(=O)CC(C)C)CC[C@H]2CC[C@@H](C(=O)NC(c3ccccc3)c3ccccc3)N2C1=O [AT-406]	-8.4
C[C@@H]1CN(CC(=O)N2CC(C)(C)c3ncc(Cc4ccc(F)cc4)cc32)[C@@H](CN2CCOC[C@H]2C)CN1 [AT-IAP]	-62.8
CC(=O)N1CCC[C@H]1C(=O)N[C@@H](Cc1c[nH]cn1)C(=O)N[C@@H](CO)C(=O)N[C@@H](CS)C(=O)N[C@@H](CC(N)=O)C(N)=O [ATN-161]	-6.15
COC1=CC2=C(OC\C(=C2\C3=CC=C(F)C=C3)CN4CCCC4)C=C1 [AX-024]	-55.9
CCN(CCCOc1ccc2c(Nc3cc(CC(=O)Nc4cccc(F)c4)[nH]n3)ncnc2c1)CCOP(=O)(O)O [AZD1152]	-24.9
C[N]1N=CC=C1C/2=C(\C)N(C(=O)C(=C2)/C(=O)NCC3=NC=C(C=C3)[S+](C)([O-])=O)C4=CC=CC(=C4)C(F)(F)F [AZD9668]	12.5
NC(=O)c1cnc(-c2ccc(C3(N)CCC3)cc2)c(-c2ccccc2)c1 [AZD-26]	-66.9
COC1CCN(CC1)C(=O)C2=CC(=CC=C2F)CC/3=N/NC(=O)C4=CC=CC=C34 [AZD-2461]	-29.2
Cc1noc(C)c1-c1ccc(-c2cc(C(N)=O)c(NC(N)=O)s2)c(O[C@H]2CCNC2)c1 [AZD-3264]	-40.3
COc1cc2ncnc(Nc3cccc(Cl)c3F)c2cc1OC(=O)N1CCN(C)C[C@H]1C [AZD-3759]	-38.2
Cc1[nH]nc(C(F)(F)F)c1Cc1sc2c(c1C(=O)N1C[C@](C)(O)CO1)c(=O)n(C)c(=O)n2C(C)C [AZD-3965]	-11.2
CC(C)C[C@H](CO)Nc1nc(S[C@@H](C)c2ccccc2)nc2nc(N)sc12 [AZD-8797]	-86.1

SMILES	efficacy [%]
CCn1nc(C2CCN(C(=O)CCO)CC2)nc1-c1cnc(N)c(-c2nnc(C(C)(C)C)o2)n1 [AZD-8835]	-18.9
C[C@@H]1Cc2c([nH]c3ccccc23)[C@@H](c2c(F)cc(/C=C/C(=O)O)cc2F)N1CC(C)(C)F [AZD-9496 maleate]	-13.1
C[C@]\12CC[C@H](O)CC1=C/C[C@@H]3[C@@H]2CC[C@@]\4(C)[C@H]3C\C=C4C5=CN=CC=C5 [Abiraterone]	7.6
CC(=O)NCCC(=O)N[C@@H](CCC(N)=O)C(=O)N[C@@H](CO)C(=O)N[C@@H](CCC(N)=O)C(=O)N[C@@H](CCC(N)=O)C(=O)N[C@H](C(=O)N[C@@H](Cc1ccccc1)C(=O)N[C@]1(C)CCCCCC/C=C\CCC[C@@](C)(C(=O)N[C@@H](CCC(N)=O)C(=O)N[C@@H](CC(N)=O)C(N)=O)NC(=O)[C@H](CC(C)C)NC(=O)[C@H](CC(C)C)NC(=O)[C@@H](CCCNC(=N)N)NC(=O)[C@H](Cc2c[nH]c3ccccc23)NC(=O)[C@H](CC(C)C)NC(=O)[C@H](CC(N)=O)NC1=O)[C@H](C)O [Ac-SAH-p53-8]	-6.69
NC(=O)c1ncn([C@@H]2O[C@H](CO)[C@@H](O)[C@H]2O)c1N [Acadesine]	7.93
CC#CC(=O)N1CCC[C@H]1c1nc(-c2ccc(C(=O)Nc3ccccn3)cc2)c2c(N)nccn12 [Acalabrutinib]	-13.7
C[C@H](NC1=NC=NC2=C1[NH]C=N2)\C3=N\C4=C(C=C(F)C=C4)C(=O)N3C5=CC=CC=C5 [Acalisib]	-38.2
CC(=O)Nc1ccc(O)cc1 [Acetaminophen]	8.22
N\C1=N\C2=C(N=C[N]2COCCO)C(=O)N1 [Aciclovir]	-8.84
Cc1cnc(C(=O)O)c[n+]1[O-] [Acipimox]	-8.25
O=C(O)C(=O)Nc1cccc(-c2nnn[nH]2)c1 [Acitazanolast]	17
COc1cc(C)c(/C=C/C(C)=C/C=C/C(C)=C/C(=O)O)c(C)c1C [Acitretin]	-17.3
COc1ccc(-c2ccc3cc(C(=O)O)ccc3c2)cc1C12CC3CC(CC(C3)C1)C2 [Adapalene]	9.71
COC(=O)N1CC2(CC2)C[C@H](C(=O)NO)[C@H]1C(=O)N1CCN(c2ccccc2)CC1 [Aderbasib]	-17
COc1ccc2cccc(CCNC(C)=O)c2c1 [Agomelatine]	-12.5
CN(C)CC(C)(C)CNc1nn2c(-c3ccccc3)nnc2cc1C1CCC1 [Akt-I-1]	-8.48
CN(C)CCc1c[nH]c2ccc(C[S+](=O)([O-])N3CCCC3)cc12 [Almotriptan]	-6.46
CCOC(=O)[C@H]1O[C@@H]1C(=O)N[C@@H](CC(C)C)C(=O)NCCC(C)C [Aloxistatin]	-5.94
CCCCC[C@H](O)/C=C/[C@H]1[C@H](O)CC(=O)[C@@H]1CCCCCCC(=O)O [Alprostadil]	-12.3
O=C(Nc1cc(Oc2cc(F)c(NC(=O)C3(C(=O)Nc4ccc(F)cc4)CC3)cc2F)ccn1)C1CC1 [Altiratinib]	-68.8
CN(C)c1nc(N(C)C)nc(N(C)C)n1 [Altretamine]	-12.2
NC12CC3CC(CC(C3)C1)C2 [Amantadine hydrochloride]	-15.1
COC(c1ccccc1)(c1ccccc1)[C@H](Oc1nc(C)cc(C)n1)C(=O)O [Ambrisentan]	-8.06
N=C(N)NC(=O)c1nc(Cl)c(N)nc1N [Amiloride hydrochloride]	-10.8

SMILES	efficacy [%]
NCCCCCC(=O)O [Aminocaproic acid]	-11.3
CCN1CCCC1CNC(=O)c1cc([S+](=O)([O-])CC)c(N)cc1OC (stereo not given) [Amisulpride]	-6.46
CC(C)c1ccc2oc3nc(N)c(C(=O)O)cc3c(=O)c2c1 [Amlexanox]	-24.9
CC1(C)[C@@H](O[C@H]2O[C@H](C(=O)O)[C@@H](O)[C@H](O)[C@H]2O[C@@H]2O[C@H](C(=O)O)[C@@H](O)[C@H](O)[C@H]2O)CC[C@]2(C)[C@H]3C(=O)C=C4[C@@H]5C[C@@](C)(C(=O)O)CC[C@]5(C)CC[C@@]4(C)[C@]3(C)CC[C@@H]12 [Ammonium Glycyrrhizinate]	7.39
CCC(C)(C)c1ccc(CC(C)CN2C[C@@H](C)O[C@@H](C)C2)cc1 (stereo not given in full) [Amorolfine hydrochloride]	-10
CC1(C)S[C@H]2[C@H](NC(=O)[C@@H](N)c3ccc(O)cc3)C(=O)N2[C@H]1C(=O)O [Amoxicillin sodium]	6.82
C[C@@H]1CC2=C(C=C3OCOC3=C2)C(=N\N1C(C)=O)/C4=CC=C(N)C=C4 [Ampanel]	-12.4
C[C@@H]1[C@H](O)[C@@H](C)/C=C/C=C/C=C/C=C/C=C/C=C/C=C/[C@H](O[C@@H]2O[C@H](C)[C@@H](O)[C@H](N)[C@@H]2O)C[C@@H]2O[C@](O)(C[C@@H](O)C[C@@H](O)[C@H](O)CC[C@@H](O)C[C@@H](O)CC(=O)O[C@H]1C)C[C@H](O)[C@H]2C(=O)O [Amphotericin B]	-15.3
N#CC(O[C@@H]1O[C@H](CO[C@@H]2O[C@H](CO)[C@@H](O)[C@H](O)[C@H]2O)[C@@H](O)[C@H](O)[C@H]1O)c1ccccc1 (stereo not given in full) [Amygdalin]	29
COc1cc(F)c(C(C)C)cc1-c1ccc(C(F)(F)F)cc1CN1C(=O)O[C@H](c2cc(C(F)(F)F)cc(C(F)(F)F)c2)[C@@H]1C [Anacetrapib]	-14.3
ClC1=CC=C2N/C3=N/C(=O)CN3CC2=C1Cl [Anagrelide]	-14.6
CN(C)N(C)C(=O)[C@@]1(Cc2ccccc2)CCCN(C(=O)[C@@H](Cc2c[nH]c3ccccc23)NC(=O)C(C)(C)N)C1 [Anamorelin]	-33.8
CC(C)(C#N)c1cc(Cn2cncn2)cc(C(C)(C)C#N)c1 [Anastrozole]	-11.5
CC(=O)Nc1ccc(OC[C@](C)(O)C(=O)Nc2ccc([N+](=O)[O-])c(C(F)(F)F)c2)cc1 [Andarine]	-7.63
COc1ccc(C(=O)N2CCCC2=O)cc1 [Aniracetam]	-17.4
CNC(=O)c1ccc(N2C(=S)N(c3cnc(C#N)c(C(F)(F)F)c3)C(=O)C23CCC3)cc1F [Apalutamide]	-24.3
N#CC1(c2ccc(NC(=O)c3cccnc3NCc3ccncc3)cc2)CCCC1 [Apatinib]	-32.7
Cn1c(/C=C/CO)c(CO)c2c1C(=O)C=C(N1CC1)C2=O [Apaziquone]	-8.27
OC1=CC=C(C=C1)\C2=C\C(=O)C3=C(O2)C=C(O)C=C3O [Apigenin]	-82
NNc1nncc2ccccc12 [Apresoline]	28.9
CC1CNc2c(cccc2[S+](=O)([O-])N[C@@H](CCCNC(=N)N)C(=O)N2CC[C@@H](C)C[C@@H]2C(=O)O)C1 (stereo not given in full) [Argatroban]	-15.9
CO[C@H]1O[C@@H]2O[C@@]3(C)CC[C@H]4[C@H](C)CC[C@@H]([C@H]1C)[C@@]24OO3 [Artemether]	-12.5
